Measurements reported in PMC7717600, “Novel [(N-alkyl-3-indolylmethylene)hydrazono]oxindoles arrest cell cycle and induce cell apoptosis by inhibiting CDK2 and Bcl-2: synthesis, biological evaluation and in silico studies” (Journal of Enzyme Inhibition and Medicinal Chemistry, 2020).

Columns and labels:
MDA-MB-435 = experiment: NCI SRB screening; assay type: cell-based; conditions: MDA-MB-435, 10 μM
TK-10 = conditions: TK-10, 10 μM
DU-145 = conditions: DU-145, 10 μM
HS 578T = conditions: 10 μM
SNB-75 = conditions: SNB-75, 10 μM
A-549 = experiment: SRB anti-proliferative assay; assay type: cell-based; conditions: Homo sapiens, A549; A-549, SRB, mean ± SE of 3
Procedure: Staurosporine, a clinically used antitumor drug, was co-assayed as a reference agent for the experiment.
Examination of the cytotoxic activity for the target conjugates was carried out in accordance with the SRB colorimetric assay protocol, as described previously.
In vitro anti-proliferative activity assay
Cells at a concentration of 0.50 x
Sulfo-Rhodamine-B stain (SRB) assay.
cell to the wall of the plate.
wells were prepared for each individual dose).
Unbound dye was removed by four

RXF 393 = conditions: RXF 393, 10 μM
HL-60(TB) = conditions: HL-60(TB), 10 μM
SR = conditions: 10 μM
HCT-15 = conditions: HCT-15, 10 μM
SK-OV-3 = conditions: SK-OV-3, 10 μM
NCI-H460 = experiment: NCI SRB screening; assay type: cell-based, human; conditions: NCI-H460, 10 μM
HOP-92 = conditions: HOP-92, 10 μM
MDA-MB-231/ATCC = conditions: MDA-MB-231, 10 μM
HCT-116 = conditions: HCT-116, 10 μM
RPMI-8226 = conditions: RPMI-8226, 10 μM
MOLT-4 = conditions: MOLT-4, 10 μM
NCI-H23 = conditions: NCI-H23, 10 μM

C=CCn1cc(C=NN=C2C(=O)Nc3c(F)cccc32)c2ccccc21 [Compound 10c]
GI % (MDA-MB-435): – (Only GI % higher than 10% are shown) | GI % (TK-10): – (Only GI % higher than 10% are shown) | GI % (DU-145): – (Only GI % higher than 10% are shown) | GI % (HS 578T): – (Only GI % higher than 10% are shown) | GI % (SNB-75): – (Only GI % higher than 10% are shown) | IC50 (A-549): 43.8 ± 2.96 µM | GI % (RXF 393): – (Only GI % higher than 10% are shown) | GI % (HL-60(TB)): – (Only GI % higher than 10% are shown) | GI % (SR): 58% | GI % (HCT-15): 22% | GI % (SK-OV-3): – (Only GI % higher than 10% are shown) | GI % (NCI-H460): – (Only GI % higher than 10% are shown) | GI % (HOP-92): – (Only GI % higher than 10% are shown) | GI % (MDA-MB-231/ATCC): – (Only GI % higher than 10% are shown) | GI % (HCT-116): 28% | GI % (RPMI-8226): – (Only GI % higher than 10% are shown) | GI % (MOLT-4): 19% | GI % (NCI-H23): – (Only GI % higher than 10% are shown)

C=CCn1cc(C=NN=C2C(=O)Nc3ccc(Cl)cc32)c2ccccc21 [Compound 10d]
GI % (MDA-MB-435): – (Only GI % higher than 10% are shown) | GI % (TK-10): – (Only GI % higher than 10% are shown) | GI % (DU-145): – (Only GI % higher than 10% are shown) | GI % (HS 578T): – (Only GI % higher than 10% are shown) | GI % (SNB-75): – (Only GI % higher than 10% are shown) | IC50 (A-549): 53.1 ± 4.13 µM | GI % (RXF 393): – (Only GI % higher than 10% are shown) | GI % (HL-60(TB)): – (Only GI % higher than 10% are shown) | GI % (SR): 33% | GI % (HCT-15): 10% | GI % (SK-OV-3): – (Only GI % higher than 10% are shown) | GI % (NCI-H460): – (Only GI % higher than 10% are shown) | GI % (HOP-92): – (Only GI % higher than 10% are shown) | GI % (MDA-MB-231/ATCC): – (Only GI % higher than 10% are shown) | GI % (HCT-116): – (Only GI % higher than 10% are shown) | GI % (RPMI-8226): – (Only GI % higher than 10% are shown) | GI % (MOLT-4): 14% | GI % (NCI-H23): – (Only GI % higher than 10% are shown)

CCCn1cc(/C=N/N=C2\C(=O)Nc3ccc(OC(F)(F)F)cc32)c2ccccc21 [Compound 8b]
GI % (MDA-MB-435): – (Only GI % higher than 10% are shown) | GI % (TK-10): – (Only GI % higher than 10% are shown) | GI % (DU-145): 13% | GI % (HS 578T): – (Only GI % higher than 10% are shown) | GI % (SNB-75): – (Only GI % higher than 10% are shown) | IC50 (A-549): 9.2 ± 0.78 µM | GI % (RXF 393): – (Only GI % higher than 10% are shown) | GI % (HL-60(TB)): 12% | GI % (SR): – (Only GI % higher than 10% are shown) | GI % (HCT-15): 23% | GI % (SK-OV-3): – (Only GI % higher than 10% are shown) | GI % (NCI-H460): 11% | GI % (HOP-92): – (Only GI % higher than 10% are shown) | GI % (MDA-MB-231/ATCC): – (Only GI % higher than 10% are shown) | GI % (HCT-116): 21% | GI % (RPMI-8226): 30% | GI % (MOLT-4): 50% | GI % (NCI-H23): 12%

C=CCn1cc(C=NN=C2C(=O)Nc3ccccc32)c2ccccc21 [Compound 10a]
GI % (MDA-MB-435): – (Only GI % higher than 10% are shown) | GI % (TK-10): – (Only GI % higher than 10% are shown) | GI % (DU-145): – (Only GI % higher than 10% are shown) | GI % (HS 578T): – (Only GI % higher than 10% are shown) | GI % (SNB-75): 18% | IC50 (A-549): 17.3 ± 1.19 µM | GI % (RXF 393): 11% | GI % (HL-60(TB)): 22% | GI % (SR): 50% | GI % (HCT-15): 15% | GI % (SK-OV-3): – (Only GI % higher than 10% are shown) | GI % (NCI-H460): – (Only GI % higher than 10% are shown) | GI % (HOP-92): – (Only GI % higher than 10% are shown) | GI % (MDA-MB-231/ATCC): – (Only GI % higher than 10% are shown) | GI % (HCT-116): 24% | GI % (RPMI-8226): 13% | GI % (MOLT-4): 35% | GI % (NCI-H23): 12%

CC(C)n1cc(C=NN=C2C(=O)Nc3ccccc32)c2ccccc21 [Compound 9]
GI % (MDA-MB-435): – (Only GI % higher than 10% are shown) | GI % (TK-10): – (Only GI % higher than 10% are shown) | GI % (DU-145): – (Only GI % higher than 10% are shown) | GI % (HS 578T): – (Only GI % higher than 10% are shown) | GI % (SNB-75): 33% | IC50 (A-549): 31.7 ± 2.27 µM | GI % (RXF 393): – (Only GI % higher than 10% are shown) | GI % (HL-60(TB)): 18% | GI % (SR): 11% | GI % (HCT-15): – (Only GI % higher than 10% are shown) | GI % (SK-OV-3): – (Only GI % higher than 10% are shown) | GI % (NCI-H460): – (Only GI % higher than 10% are shown) | GI % (HOP-92): 14% | GI % (MDA-MB-231/ATCC): 11% | GI % (HCT-116): – (Only GI % higher than 10% are shown) | GI % (RPMI-8226): – (Only GI % higher than 10% are shown) | GI % (MOLT-4): 13% | GI % (NCI-H23): – (Only GI % higher than 10% are shown)

CCCn1cc(C=NN=C2C(=O)Nc3ccc([N+](=O)[O-])cc32)c2ccccc21 [Compound 8c]
GI % (MDA-MB-435): – (Only GI % higher than 10% are shown) | GI % (TK-10): – (Only GI % higher than 10% are shown) | GI % (DU-145): – (Only GI % higher than 10% are shown) | GI % (HS 578T): – (Only GI % higher than 10% are shown) | GI % (SNB-75): – (Only GI % higher than 10% are shown) | IC50 (A-549): 12.3 ± 1.05 µM | GI % (RXF 393): – (Only GI % higher than 10% are shown) | GI % (HL-60(TB)): 10% | GI % (SR): 19% | GI % (HCT-15): – (Only GI % higher than 10% are shown) | GI % (SK-OV-3): – (Only GI % higher than 10% are shown) | GI % (NCI-H460): 19% | GI % (HOP-92): 11% | GI % (MDA-MB-231/ATCC): – (Only GI % higher than 10% are shown) | GI % (HCT-116): 20% | GI % (RPMI-8226): – (Only GI % higher than 10% are shown) | GI % (MOLT-4): – (Only GI % higher than 10% are shown) | GI % (NCI-H23): – (Only GI % higher than 10% are shown)
